This is an account of results in publication PMC3324464, “The GPI Anchor Signal Sequence Dictates the Folding and Functionality of the Als5 Adhesin from Candida albicans” (PLoS ONE, 2012).

Test [1] has as its target T1, GST-Als5 (Candida albicans, UniProt Q5A8T7).
T1 construct: made in house; host or cells: E. coli BL21(DE3)
Kind of test: biochemical. The settings on record: for Kd: 0.02 mg/ml protein, excitation 295 nm, one-site saturation model. The test is classed as binding. Here is the method: (§1) Binding of GST-Als5 and GST-Als5-SS proteins to different peptides was monitored by fluorescence emission spectroscopy. Freshly purified samples of protein were used each time. 0.02 mg/ml of the proteins were taken and the tryptophan-specific emission spectra were monitored between 310 nm to 400 nm by excitation at 295 nm. The peptides were titrated into the protein solutions, incubated for 5 minutes after each addition, and emission spectra recorded. Both excitation and emission bandwidths were fixed at 5 nm and all spectra were averages of 5 scans. All spectra were corrected for buffer and peptide backgrounds.
(§2) All binding data were analyzed using a one-site saturation model. Binding studies were done at different temperatures, and ΔG^o for the protein-peptide interactions calculated using the equation: ΔG^o = –RTlnKa. ΔH^o and ΔS^o were obtained from the slope and intercept of the van’t Hoff plots according to the equation: [drawing 1]
The change in fluorescence emission intensity upon titration with the peptide ligands was monitored (see Figures S8A, S8C, S8E, S8G and Figures S9A, S9C, S9E, S9G, respectively) and the binding plots obtained (Figures S8B, S8D, S8F, S8H and Figures S9B, S9D, S9F, S9H, respectively) were used to calculate dissociation constants (Kd) for the interaction (Table 1).
Supplementary file pone.0035305.s008.tif: Figure S8 Binding of GST-Als5 with different peptides. A, C, E and G show representative fluorescence spectra obtained upon binding of GST-Als5 with the peptide EHAHTPR at 15 °C, 27 °C, 37 °C and 47 °C, respectively. B, D, F and H represent the binding plots of GST-Als5 with different peptides at 15 °C, 27 °C, 37 °C and 47 °C, respectively. Each data point gives the average of three independent measurements done in duplicates and the error bars denote standard deviations. Spectra 1–7 represent binding of peptides with GST-Als5 in the following order of increasing concentrations of the peptides: 1: no peptide; 2: 0.037 µM; 3: 0.074 µM; 4: 0.443 µM; 5: 0.804 µM; 6: 1.154 µM; 7: 1.5 µM. (TIF) Click here for additional data file.

Test [2] concerns the target T2, GST-Als5-SS (Candida albicans, UniProt Q5A8T7).
T2 construct: made in house; host or cells: E. coli BL21(DE3)
As to the kind of experiment: biochemical. The test is classed as binding. As for the experimental part: as §1, §2
The change in fluorescence emission intensity upon titration with the peptide ligands was monitored (see Figures S8A, S8C, S8E, S8G and Figures S9A, S9C, S9E, S9G, respectively) and the binding plots obtained (Figures S8B, S8D, S8F, S8H and Figures S9B, S9D, S9F, S9H, respectively) were used to calculate dissociation constants (Kd) for the interaction (Table 1). […]

Test [3] deals with T3, GST-Als5 (Candida albicans, UniProt Q5A8T7 20-1327).
T3 construct: source: E. coli BL21, purified (glutathione-agarose); not shown: GST, N-terminal, kept
T3 sequence: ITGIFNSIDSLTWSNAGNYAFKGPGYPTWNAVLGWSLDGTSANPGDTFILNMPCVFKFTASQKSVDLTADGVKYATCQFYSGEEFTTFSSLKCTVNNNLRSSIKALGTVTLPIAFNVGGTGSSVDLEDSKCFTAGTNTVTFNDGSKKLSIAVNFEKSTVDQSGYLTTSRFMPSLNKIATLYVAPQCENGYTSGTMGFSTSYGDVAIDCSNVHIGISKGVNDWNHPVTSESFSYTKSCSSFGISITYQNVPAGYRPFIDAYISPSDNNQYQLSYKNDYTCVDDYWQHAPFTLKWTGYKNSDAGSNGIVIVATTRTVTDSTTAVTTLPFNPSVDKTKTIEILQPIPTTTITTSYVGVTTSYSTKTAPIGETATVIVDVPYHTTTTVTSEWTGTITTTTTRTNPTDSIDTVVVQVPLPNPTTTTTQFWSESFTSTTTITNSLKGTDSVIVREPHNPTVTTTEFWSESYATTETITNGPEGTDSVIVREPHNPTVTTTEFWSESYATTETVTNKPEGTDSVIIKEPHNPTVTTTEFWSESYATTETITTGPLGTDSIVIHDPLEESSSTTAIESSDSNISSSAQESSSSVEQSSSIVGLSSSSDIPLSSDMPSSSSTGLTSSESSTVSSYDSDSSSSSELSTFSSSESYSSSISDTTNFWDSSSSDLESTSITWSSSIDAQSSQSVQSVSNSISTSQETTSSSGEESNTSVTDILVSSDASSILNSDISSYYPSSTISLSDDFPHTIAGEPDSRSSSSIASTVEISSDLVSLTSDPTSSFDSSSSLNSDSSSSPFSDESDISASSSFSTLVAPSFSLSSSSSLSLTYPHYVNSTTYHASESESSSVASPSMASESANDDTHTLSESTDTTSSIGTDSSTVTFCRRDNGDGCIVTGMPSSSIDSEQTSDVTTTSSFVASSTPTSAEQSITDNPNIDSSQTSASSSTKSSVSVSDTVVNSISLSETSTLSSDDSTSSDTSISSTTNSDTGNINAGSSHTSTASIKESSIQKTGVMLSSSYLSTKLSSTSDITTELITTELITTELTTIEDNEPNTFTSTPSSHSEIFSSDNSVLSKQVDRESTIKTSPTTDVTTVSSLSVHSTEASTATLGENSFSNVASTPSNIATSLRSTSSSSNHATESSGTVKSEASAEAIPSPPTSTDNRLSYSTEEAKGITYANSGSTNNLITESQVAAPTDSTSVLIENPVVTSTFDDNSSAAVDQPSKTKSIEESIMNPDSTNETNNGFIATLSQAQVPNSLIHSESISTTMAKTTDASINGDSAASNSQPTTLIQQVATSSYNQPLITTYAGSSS
Kind of test: other fluorescence titration; tryptophan fluorescence of 0.02 mg/ml protein, peptide titrated in; one-site saturation model; 42 °C. The settings on record: both partners purified.

Test [4] addresses T4, GST-Als5-SS (Candida albicans, UniProt Q5A8T7 20-1326, N-terminal GST tag (pGEX-6P-2) not cleaved, omitted here; expressed in E. coli, unglycosylated. The 4044 bp insert implies the full ORF, including the N-terminal secretion signal, although the figure). As to the kind of experiment: other fluorescence titration; van't Hoff plots of the association constants from the fluorescence titrations at different temperatures; ΔH° from the slope. The settings on record: both partners purified.

Test [5] has as its target T3, GST-Als5. The description is as above. The settings on record: both partners purified.
Test [6] deals with T4, GST-Als5-SS. Kind of test: other fluorescence titration; tryptophan fluorescence of 0.02 mg/ml protein, peptide titrated in; one-site saturation model; 52 °C (secondary structure of both proteins mildly perturbed at this temperature). The settings on record: both partners purified.
Test [7] addresses T3, GST-Als5. Described as above. The settings on record: both partners purified.
Where [8] appears, read: 15 °C, N.B. = no binding observed, emission 310-400 nm, average of three independent measurements in duplicates.
Setting [9] is: 27 °C, N.B. = no binding observed, average of three independent measurements in duplicates.
[10] abbreviates: Kd, 37 °C, average of three independent measurements in duplicates.
[11] abbreviates: Kd, 47 °C, N.B. = no binding observed, average of three independent measurements in duplicates.
Where [12] appears, read: 15 °C, N.B. = no binding observed, 0.02 mg/ml protein, excitation 295 nm, emission 310-400 nm, one-site saturation model, average of three independent measurements in duplicates.
The mark [13] stands for this setting: Kd, 27 °C, N.B. = no binding observed, 0.02 mg/ml protein, excitation 295 nm, one-site saturation model, average of three independent measurements in duplicates.
[14] abbreviates: Kd, 37 °C, 0.02 mg/ml protein, excitation 295 nm, one-site saturation model, average of three independent measurements in duplicates.
[15] abbreviates: Kd, 47 °C, N.B. = no binding observed, 0.02 mg/ml protein, excitation 295 nm, one-site saturation model, average of three independent measurements in duplicates.

Like-named read-outs stand apart in the source and are kept apart here. Ends that are not written are not given here.

T2 sequence (Q5A8T7 whole entry): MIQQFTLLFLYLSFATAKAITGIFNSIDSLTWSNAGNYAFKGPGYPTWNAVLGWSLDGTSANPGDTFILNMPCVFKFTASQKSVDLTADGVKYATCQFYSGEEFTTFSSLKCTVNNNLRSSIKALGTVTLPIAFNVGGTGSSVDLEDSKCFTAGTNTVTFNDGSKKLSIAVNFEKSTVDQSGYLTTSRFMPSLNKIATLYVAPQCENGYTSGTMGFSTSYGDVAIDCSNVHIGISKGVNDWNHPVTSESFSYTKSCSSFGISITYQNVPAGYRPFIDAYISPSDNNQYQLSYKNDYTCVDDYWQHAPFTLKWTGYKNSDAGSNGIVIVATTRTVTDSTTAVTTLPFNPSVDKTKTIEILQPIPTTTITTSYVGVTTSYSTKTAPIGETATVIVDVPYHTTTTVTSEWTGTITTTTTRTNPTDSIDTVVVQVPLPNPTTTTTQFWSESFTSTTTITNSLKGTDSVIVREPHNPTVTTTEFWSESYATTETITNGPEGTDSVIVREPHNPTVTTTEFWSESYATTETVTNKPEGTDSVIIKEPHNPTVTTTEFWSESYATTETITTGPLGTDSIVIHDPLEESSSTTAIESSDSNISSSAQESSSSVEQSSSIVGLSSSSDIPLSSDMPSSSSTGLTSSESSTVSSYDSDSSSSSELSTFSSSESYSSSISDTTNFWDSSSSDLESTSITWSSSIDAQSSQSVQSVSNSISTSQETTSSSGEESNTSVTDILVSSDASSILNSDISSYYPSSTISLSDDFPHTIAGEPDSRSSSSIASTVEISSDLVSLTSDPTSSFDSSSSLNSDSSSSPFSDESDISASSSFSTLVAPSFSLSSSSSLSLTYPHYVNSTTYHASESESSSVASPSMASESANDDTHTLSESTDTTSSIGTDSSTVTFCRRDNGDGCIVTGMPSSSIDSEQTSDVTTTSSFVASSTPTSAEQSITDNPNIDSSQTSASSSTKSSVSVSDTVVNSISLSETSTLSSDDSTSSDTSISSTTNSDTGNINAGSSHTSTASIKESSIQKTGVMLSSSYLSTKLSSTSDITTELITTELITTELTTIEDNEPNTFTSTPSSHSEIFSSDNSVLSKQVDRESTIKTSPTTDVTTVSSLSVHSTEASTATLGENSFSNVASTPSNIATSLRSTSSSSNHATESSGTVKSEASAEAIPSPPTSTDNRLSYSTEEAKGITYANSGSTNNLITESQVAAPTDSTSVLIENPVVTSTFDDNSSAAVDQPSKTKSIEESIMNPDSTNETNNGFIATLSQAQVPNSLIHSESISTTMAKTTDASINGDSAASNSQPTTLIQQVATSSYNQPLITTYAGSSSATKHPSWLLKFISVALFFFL
T1 sequence (Q5A8T7 1-1327): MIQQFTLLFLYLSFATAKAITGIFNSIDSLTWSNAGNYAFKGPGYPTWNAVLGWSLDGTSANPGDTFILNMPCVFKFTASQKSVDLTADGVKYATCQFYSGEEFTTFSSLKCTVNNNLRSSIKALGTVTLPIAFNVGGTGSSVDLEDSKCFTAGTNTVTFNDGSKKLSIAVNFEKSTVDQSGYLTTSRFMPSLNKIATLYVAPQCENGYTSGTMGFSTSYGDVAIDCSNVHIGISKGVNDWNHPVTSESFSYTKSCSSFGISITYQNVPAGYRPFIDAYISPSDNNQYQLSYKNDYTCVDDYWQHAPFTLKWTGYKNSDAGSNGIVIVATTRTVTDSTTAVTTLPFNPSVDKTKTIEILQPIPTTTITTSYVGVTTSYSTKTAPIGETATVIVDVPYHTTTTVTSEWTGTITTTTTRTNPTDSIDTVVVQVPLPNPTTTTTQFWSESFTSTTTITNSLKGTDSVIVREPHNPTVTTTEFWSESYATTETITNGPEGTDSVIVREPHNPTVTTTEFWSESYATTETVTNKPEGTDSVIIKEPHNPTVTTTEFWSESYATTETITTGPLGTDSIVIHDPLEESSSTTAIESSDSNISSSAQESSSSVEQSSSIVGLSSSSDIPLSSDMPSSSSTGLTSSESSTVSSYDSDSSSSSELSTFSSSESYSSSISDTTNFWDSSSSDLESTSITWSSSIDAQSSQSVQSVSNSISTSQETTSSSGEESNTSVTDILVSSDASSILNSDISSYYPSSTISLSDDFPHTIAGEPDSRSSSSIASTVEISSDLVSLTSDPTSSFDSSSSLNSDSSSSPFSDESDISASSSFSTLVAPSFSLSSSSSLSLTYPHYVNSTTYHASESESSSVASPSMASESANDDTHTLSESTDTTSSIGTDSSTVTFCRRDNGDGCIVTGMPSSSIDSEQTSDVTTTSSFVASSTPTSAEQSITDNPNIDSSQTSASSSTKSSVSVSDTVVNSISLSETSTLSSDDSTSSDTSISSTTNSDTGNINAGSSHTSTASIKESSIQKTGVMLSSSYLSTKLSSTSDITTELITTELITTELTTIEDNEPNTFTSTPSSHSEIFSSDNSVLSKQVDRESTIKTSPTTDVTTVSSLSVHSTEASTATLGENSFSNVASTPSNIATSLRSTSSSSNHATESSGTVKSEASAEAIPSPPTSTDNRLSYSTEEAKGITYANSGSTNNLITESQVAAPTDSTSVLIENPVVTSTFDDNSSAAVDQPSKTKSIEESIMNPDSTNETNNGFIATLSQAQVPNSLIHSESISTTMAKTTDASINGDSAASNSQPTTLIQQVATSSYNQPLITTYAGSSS

As usually defined, the Kd is the equilibrium constant for the complex coming apart. As to AYKSLMT [AYKSLMT], the Kd entry in test [1] (setting [8]) was “N.B”; in test [1] (setting [9]), “N.B”; in test [1] (setting [10]), 13 ± 7 nM; in test [1] (Kd, 42 °C) it was 9 ± 4 nM; in test [1] (setting [11]), 13 ± 6 nM; in test [2] (setting [12]), “N.B”. The dissociation constant (Kd) in test [2] (setting [13]) was 77 ± 2 nM; in test [2] (setting [14]) it was 6 ± 0.2 nM; in test [2] (setting [15]) it was 9 ± 2 nM.

On to EHAHTPR [EHAHTPR], for which the dissociation constant Kd entry was “N.B” in test [1] (setting [8]); “N.B” in test [1] (setting [9]); 160 ± 38 nM in test [1] (setting [10]); 34 ± 8 nM in test [1] (Kd, 42 °C); 34 ± 11 nM in test [1] (setting [11]); 65 ± 13 nM in test [2]. Besides, the dissociation constant (Kd) was 82 ± 16 nM in test [2] (setting [13]), 44 ± 4 nM in test [2] (setting [14]) and 25 ± 9 nM in test [2] (setting [15]).

With KLRIPSV [KLRIPSV], the Kd entry in test [1] (setting [8]) is “N.B”; in test [1] (setting [9]) it was “N.B”; in test [1] (setting [10]), 34 ± 12 nM; in test [1] (setting [11]) it was 7 ± 3 nM; in test [1] (Kd, 52 °C (secondary structure of protein mildly perturbed)), 7 ± 2 nM; in test [2] (setting [12]), “N.B”. The values for the Kd in test [2] (setting [13]), in test [2] (setting [14]) and in test [2] (setting [15]) were 53 ± 6 nM, 17 ± 5 nM and 14 ± 2 nM, respectively.

Consider VSPIRLK [scrambled peptide], for which the “binding (in words)” value in test [1] (27 °C and 47 °C) is “showed no affinity for either of the protein variants”; in test [2] (27 °C and 47 °C) it was “showed no affinity for either of the protein variants”. Further, the Kd entry in test [1] (setting [9]) is listed as “N.B”; in test [1] (47 °C, N.B. = no binding observed, average of three independent measurements in duplicates), “N.B”; in test [2] (27 °C, N.B. = no binding observed, 0.02 mg/ml protein, excitation 295 nm, one-site saturation model, average of three independent measurements in duplicates) it was “N.B”; in test [2] (47 °C, N.B. = no binding observed, 0.02 mg/ml protein, excitation 295 nm, one-site saturation model, average of three independent measurements in duplicates), “N.B”.

As to KLRIPSV (source: synthetic peptide (USV Ltd.)), the Kd came out at 4 nM in test [3], 5 nM in test [6] and 7 nM in test [7]. The dH was determined as 15.3 kcal/mol in test [4] and 22.5 kcal/mol in test [5].

As for EHAHTPR (source: synthetic peptide (USV Ltd.)), the dissociation constant (Kd) was 34 nM in test [3], 8 nM in test [6] and 11 nM in test [7]. Moreover, the results for the dH in test [4] and in test [5] were 8.15 kcal/mol and 33.4 kcal/mol, respectively.
